# Target: T1, Tyk2 (Homo sapiens, UniProt P29597)
# T1 construct: purchased Invitrogen
# Test: Tyk2 enzyme inhibition test (LANCE method)
# Format: biochemical
# Details: 1 uM test compound, ULight-JAK1 peptide substrate, well without enzyme = 100% inhibition, read-out: Tyk2 enzyme inhibitory activity (%, 1 uM)
# Procedure: Tyk2 enzyme inhibitory activity of test compounds was measured by LANCE method (PerkinElmer). First, a test compound diluted with assay buffer (50 mM HEPES (pH=7.5), 10 mM MgCl2, 1 mM EGTA, 2 mM DTT, 0.01% Tween20, 0.01% BSA) was added to 384-well plate at 2 μL each. Then, a Tyk2 (Invitrogen) solution and a fluorescence-labeled peptide substrate (ULight-JAK1, PerkinElmer) solution diluted with assay buffer at 375 ng/mL and 300 nM, respectively were added at 2 μL each. Then, enzyme reaction was started by adding 2 μL each of ATP solution prepared with assay buffer at 30 μM. After the reaction at room temperature for 1 hr, Detection Buffer (PerkinElmer) prepared to be 20 mM EDTA, 4 nM europium-labeled anti-phosphotyrosine antibody (PerkinElmer) was added at 6 μL each. After standing at room temperature for 1 hr, fluorescence intensity (excitation wavelength 340 nm, fluorescence wavelength 665 nm, delay time 100 microsecond) was measured by a plate reader, Envision (PerkinElmer). The inhibitory activity of each compound was calculated as relative value where fluorescence intensity of a well without enzyme is considered as 100% inhibition.
# T1 sequence (P29597 whole entry): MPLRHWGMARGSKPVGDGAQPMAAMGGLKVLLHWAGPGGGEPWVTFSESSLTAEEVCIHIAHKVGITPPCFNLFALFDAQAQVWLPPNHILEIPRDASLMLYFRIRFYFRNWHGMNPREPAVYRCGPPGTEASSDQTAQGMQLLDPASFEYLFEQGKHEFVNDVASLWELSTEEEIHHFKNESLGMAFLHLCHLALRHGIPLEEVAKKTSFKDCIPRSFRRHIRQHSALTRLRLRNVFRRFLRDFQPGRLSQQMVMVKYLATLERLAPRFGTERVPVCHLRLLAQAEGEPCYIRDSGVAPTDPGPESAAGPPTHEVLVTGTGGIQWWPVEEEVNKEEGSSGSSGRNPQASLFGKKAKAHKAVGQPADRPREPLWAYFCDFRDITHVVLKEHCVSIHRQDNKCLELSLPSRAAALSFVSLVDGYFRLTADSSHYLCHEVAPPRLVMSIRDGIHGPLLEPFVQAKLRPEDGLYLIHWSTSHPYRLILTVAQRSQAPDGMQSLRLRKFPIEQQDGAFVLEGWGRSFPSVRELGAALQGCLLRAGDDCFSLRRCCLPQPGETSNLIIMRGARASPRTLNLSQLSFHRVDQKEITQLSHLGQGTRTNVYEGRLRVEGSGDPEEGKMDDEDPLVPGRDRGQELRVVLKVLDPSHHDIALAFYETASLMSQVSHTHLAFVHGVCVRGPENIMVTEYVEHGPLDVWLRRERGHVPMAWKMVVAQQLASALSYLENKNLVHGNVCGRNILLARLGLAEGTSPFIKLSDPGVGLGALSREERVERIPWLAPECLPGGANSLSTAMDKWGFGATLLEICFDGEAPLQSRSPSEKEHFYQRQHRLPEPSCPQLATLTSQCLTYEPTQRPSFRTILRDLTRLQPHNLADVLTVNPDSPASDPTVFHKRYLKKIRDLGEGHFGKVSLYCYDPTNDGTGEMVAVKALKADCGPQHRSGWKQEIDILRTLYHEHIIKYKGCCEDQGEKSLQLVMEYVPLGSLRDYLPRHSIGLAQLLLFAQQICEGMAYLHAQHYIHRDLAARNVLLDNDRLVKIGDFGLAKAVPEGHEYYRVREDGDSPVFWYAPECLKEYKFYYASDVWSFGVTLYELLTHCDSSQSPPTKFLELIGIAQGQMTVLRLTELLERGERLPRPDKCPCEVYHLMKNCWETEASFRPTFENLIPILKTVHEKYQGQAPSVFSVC
row,Structure (SMILES),inhibition at 1 µM [%]
1,"Cc1ccccc1-n1cc(Br)c2[nH]nc(N)c2c1=O [Example 1, 3-amino-7-bromo-5-(2-methylphenyl)-1,5-dihydro-4H-pyrazolo[4,3-c]pyridin-4-one]",40
2,"Cn1ccc(-c2cn(-c3ccccc3C(F)(F)F)c(=O)c3c(N)n[nH]c23)n1 [Example 43, 3-amino-7-(1-methyl-1H-pyrazol-3-yl)-5-(2-(trifluoromethyl)phenyl)-1,5-dihydro-4H-pyrazolo[4,3-c] pyridin-4-one]",92
3,"Nc1n[nH]c2c(-c3csc(CN4CCCC4)c3)cn(-c3ccccc3Cl)c(=O)c12 [Example 38, 3-amino-5-(2-chlorophenyl)-7-(5-(pyrrolidin-1-ylmethyl)-3-thienyl)-1,5-dihydro-4H-pyrazolo[4,3-c]pyridin-4-one]",95
4,"CC(C)C(C)n1cc(-c2ccn(C)n2)c2[nH]nc(N)c2c1=O (stereo not drawn) [Example 13, 3-amino-5-(3-methylbutan-2-yl)-7-(1-methyl-1H-pyrazol-3-yl)-1,5-dihydro-4H-pyrazolo[4,3-c]pyridin-4-one]",98
5,"N#Cc1ccnc(-c2cn(-c3ccccc3Cl)c(=O)c3c(N)n[nH]c23)c1 [Example 28, 2-(3-amino-5-(2-chlorophenyl)-4-oxo-4,5-dihydro-1H-pyrazolo[4,3-c]pyridin-7-yl)isonicotinonitrile]",100
6,"Cn1ccc(-c2cn(-c3c(F)cccc3F)c(=O)c3c(N)n[nH]c23)n1 [Example 15, 3-amino-5-(2,6-difluorophenyl)-7-(1-methyl-1H-pyrazol-3-yl)-1,5-dihydro-4H-pyrazolo[4,3-c]pyridin-4-one]",100
7,"CC1CCCCC1n1cc(-c2ccn(C)n2)c2[nH]nc(N)c2c1=O (stereo not drawn) [Example 14, 3-amino-5-(2-methylcyclohexyl)-7-(1-methyl-1H-pyrazol-3-yl)-1,5-dihydro-4H-pyrazolo[4,3-c]pyridin-4-one]",98
8,"N#Cc1cc2[nH]nc(N)c2c(=O)n1-c1ccccc1Cl [Example 16, 3-amino-5-(2-chlorophenyl)-4-oxo-4,5-dihydro-1H-pyrazolo[4,3-c]pyridine-6-carbonitrile]",82
9,"Nc1n[nH]c2c(-c3ccccn3)cn(-c3ccccc3Cl)c(=O)c12 [Example 24, 3-amino-5-(2-chlorophenyl)-7-(pyridin-2-yl)-1,5-dihydro-4H-pyrazolo[4,3-c]pyridin-4-one]",98
